The test system of data set [1] is refractory advanced renal cell carcinoma (RCC). As to the kind of experiment: Randomized open-label Phase 3 study of tivozanib versus sorafenib, efficacy (PFS, OS, ORR, DoR). Conditions: for median PFS: ITT population, independent radiologic review, stratified log rank p-value 0.0165; for median OS: ITT, two years after final patient enrollment, stratified log rank p-value 0.9501; for median PFS, subset receiving a prior check point inhibitor: prior checkpoint inhibitor at any time, tivozanib n=52, sorafenib n=46, unstratified Log-rank p-value 0.0616; for duration of response (DoR), 1st quartile: subjects with objective tumor response (PR or CR), not statistically significant; for 1-year probability of survival: subjects with prior checkpoint inhibitor, FIG. 5 (Kaplan-Meier analysis of IRR PFS).
Excerpt: (§1) The randomization of subjects was stratified according to the International Metastatic Renal Cell Carcinoma Database Consortium (IMDC) risk category (favorable, intermediate, poor) and according to prior therapy which could be: 1) two prior VEGFR TKIs; 2) a check point inhibitor (e.g., a PD-1 or PDL-1 inhibitor) and a prior VEGFR TKI; or 3) a VEGFR TKI plus any other systemic agent. Once the strata were identified, treatment was randomly assigned to a subject with the strata using a complete permuted block design in an unblended fashion (open-label).
Cycles were repeated every 4 weeks.
(§2) Subjects were analyzed as randomized • 2. […] Subjects were analyzed as treated. • 3. […] Subjects were analyzed as treated.
(§3) The primary efficacy endpoint (PFS) and secondary efficacy endpoints (OS, ORR, and DoR) analyses were carried out using the ITT population. The primary efficacy endpoint of PFS also was analyzed using the PP population.
(§4) The IRR was the primary data source for the PFS analysis.
(§5) The primary analysis was carried out by using a stratified Log-Rank test, in which the stratification factors were IMDC risk category (favorable; intermediate; poor) and prior therapy (two prior VEGFR TKIs; a prior checkpoint inhibitor (PD-1 or PD1 L inhibitor) plus a prior VEGFR TKI; a prior VEGFR TKI plus any other systemic agent), and using a two-sided 5% significance level. The distribution of the PFS was estimated using the Kaplan-Meier method.
(§6) The DoR was analyzed using the same method as the progression-free survival analysis. DoR was only calculated for the subgroup of subjects with an objective tumor response (PR or CR).

Data set [2] shares this test system.
Excerpt: as §1
Cycles were repeated every 4 weeks.
as §2, §3, §4, §5, §6
The conditions of data set [3]: prior phase III clinical trial; cited from earlier work.
For data set [4] the following is noted: cited from earlier work.
The conditions of data set [5]: 1.5 mg/day, 3 weeks on, 1 week off, cited from earlier work.
The mark [6] stands for this setting: subjects with prior therapy with a VEGFR TKI plus any other systemic agent.
[7] abbreviates: subjects with prior therapy with a checkpoint inhibitor and a prior VEGF TKI.
[8] abbreviates: subjects with prior therapy with two VEGFR TKIs.

Read-outs that look alike come from different tables or passages of the source.

These results are taken from US11504365B2 (AVEO Pharmaceuticals, Inc., priority 2018, dated 2022).

`CNC(=O)c1cc(Oc2ccc(NC(=O)Nc3ccc(Cl)c(C(F)(F)F)c3)cc2)ccn1` [sorafenib, reference compound]: in data set [1], the “median PFS” value is given as 3.88 months; the “median OS” value is recorded as 19.65 months; the “median PFS, subset receiving a prior check point inhibitor” value is given as 5.91 months; the “duration of response (DoR), 1st quartile” value is given as 5.55 months. In addition, in data set [1], the “1-year probability of survival” value came to 0.05. Besides, the ORR in data set [1] (setting [6]) is given as 9.8%. The compound also registered an ORR in data set [1] (setting [7]) of 6.8%. For the same compound, in data set [1] (setting [8]), the ORR is reported as 7.5%. Moreover, in data set [2], the “ORR (CR + PR)” value was found to be 8.0%.

`COc1cc2nccc(Oc3ccc(NC(=O)Nc4cc(C)on4)c(Cl)c3)c2cc1OC` [tivozanib, N-{2-chloro-4-[(6,7-dimethoxy-4-quinolyl)oxy]-phenyl}-N′-(5-methyl-3-isoxazolyl)urea]: in data set [3], the “treatment interruptions and dose reductions due to AEs, compared with sorafenib” value was “fewer treatment interruptions and dose reductions due to AEs”. Moreover, the “subjects experiencing a dose limiting toxicity (DLT)” value in data set [4] (2 mg/day tivozanib group) is 3 of 8. Further, in data set [4] (previous study KRN951/03-B01), the “maximum tolerated dose (MTD)” value is 1.5 mg/day and the “reversibility of toxicities upon stopping treatment” value was “rapidly reversible”. In data set [1], the “median PFS” value amounted to 5.59 months; the “median OS” value was 16.39 months; the “median PFS, subset receiving a prior check point inhibitor” value is 7.29 months; the “duration of response (DoR), 1st quartile” value amounted to 9.79 months. Also, the “1-year probability of survival” value in data set [1] turned out to be 0.37. For the same compound, the “difference in OS between tivozanib and sorafenib in subgroup analyses” value in data set [1] (ITT subgroups, Cox Model hazard ratios with 95% confidence intervals) is “do not indicate a statistically significant difference in OS”. Further, the “ORR (CR + PR)” value in data set [1] (all subjects, 31 PR/172 tivozanib, 14 PR/175 sorafenib) was found to be 18.0%. Also, in data set [1] (setting [6]), the ORR is 16.7%. The ORR in data set [1] (setting [7]) was 24.4%. In data set [1] (setting [8]), this compound showed an ORR of 15.2%. Besides, in data set [1] (subset with prior checkpoint inhibitor, unstratified Log-rank p-value 0.8360), the “difference in OS between the two treatment groups” value is listed as “no statistically significant differences”. Besides, in data set [5] (8/272 subjects), the “study subjects requiring a dose interruption” value was 2.9%. Besides, the “study subjects requiring a dose reduction” value in data set [5] (23/272 subjects) is recorded as 8.5%.
